The results in this text go back to the supplement of paper PMC6723410.

The first assay concerns GUMC-403. Nature of the assay: viability at highest tested concentration (max response) relative to DMSO (% of DMSO control); higher = less cytotoxic. The conditions noted are these: library / dose series: MIPE library, 11-point 1:3 dilution; top concentration 46.1 µM; 48 h. The gist of the method:
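In 1536-well plates, 700 GUMC-403 papilloma cells per well, taken from a patient and grown by conditional reprogramming, were seeded in 5 μL F + Y medium and incubated overnight at 37 °C. Compounds were pinned in at 23 nL in an 11-point 1:3 series, and left for 48 h before CellTiter-Glo luminescence was read on a ViewLux against vehicle (100%) and empty (0%) wells. Reported values are viability at the highest tested concentration relative to vehicle control.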
`C[S+](=O)([O-])Nc1ccc([N+](=O)[O-])cc1Oc1ccccc1`: the viability stood at 113. Consider `CCCC1=N[N](C)C2=C1\N=C(/NC2=O)C3=CC(=CC=C3OCC)[S+]([O-])(=O)N4CCN(C)CC4`, for which the viability stood at 74.6. On the same count and under the same terms, with `CNc1nc(Nc2ccc(C(=O)N3CCOCC3)cc2OC)ncc1Cl` the figure was 108. For `CC(C)[C@@H](N(CCCN)C(=O)C1=CC=C(C)C=C1)C/2=C(\CC3=CC=CC=C3)C(=O)C4=C(O2)C=C(Cl)C=C4`, the viability is 119.

In the case of `O=C(OCC#CCSc1nnc(-c2cccc3ccccc23)o1)c1cc2ccccc2s1`, the viability is 102. Still for that read-out and setting: with `CCCCN(CCCC)CC(O)c1cc(Cl)cc2c1-c1ccc(Cl)cc1/C2=C/c1ccc(Cl)cc1` (stereo unspecified) the figure was 104; with `CC(C)n1c(/C=C/[C@H](O)C[C@H](O)CC(=O)O)c(-c2ccc(F)cc2)c2ccccc21`, 103; with `OC[C@H]1OCC(O1)[N@@]2C=CC(N)=NC2=O` (stereo partly specified), 114. The molecule `C#CCC(Cc1cnc2nc(N)nc(N)c2n1)c1ccc(C(=O)N[C@@H](CCC(=O)O)C(=O)O)cc1` (stereo partly specified) came in with a viability of 95.2. The molecule `Fc1ccc(C(c2ccc(F)cc2)N2CCN(C/C=C/c3ccccc3)CC2)cc1` returned a viability of 109. On to `CC1=C(/C=C/C(C)=C/C=C/C(C)=C/C(=O)O)C(C)(C)CCC1`, for which the viability was 86.6. With `O=C1NC(=O)/C(=C/c2cccc(C(F)(F)F)c2)S1`, the viability is 106. For the molecule `Cc1ccc2c(c1)c1c(n2CCc2ccc(C)nc2)CCN(C)C1`, the viability is 108. On the same count and under the same terms, the figure for `CCC[C@H](NC(=O)[C@@H]1[C@H]2CCC[C@H]2CN1C(=O)[C@@H](NC(=O)[C@@H](NC(=O)c1cnccn1)C1CCCCC1)C(C)(C)C)C(=O)C(=O)NC1CC1` is 117; for `O=C(O)/C=C/c1ccc(Cn2ccnc2)cc1` it is 124. The same measure, in the same setting: the figure for `OC[C@H]1O[C@H]([C@@H](F)[C@@H]1O)N2\C=C/C(=O)NC2=O` is 116; for `CN1CCN(CCCN2c3ccccc3Sc3ccc(Cl)cc32)CC1.O=C(O)/C=C\C(=O)O.O=C(O)/C=C\C(=O)O` it is 95.8.

`NCC1(CC(=O)O)CCCCC1` yielded a viability of 115. The molecule `Cc1ccc(Nc2nccc(N(C)c3ccc4c(C)n(C)nc4c3)n2)cc1[S+](N)(=O)[O-]` had a viability of 117. The same measure, in the same setting: the figure for `CCOC(=O)[C@H]1O[C@@H]1C(=O)N[C@@H](CC(C)C)C(=O)NCCC(C)C` is 109. Still for that read-out and setting: the figure for `ClC1=CC=C(C=C1)C(C#N)C2=C(Cl)C=C(C=C2Cl)N3\N=C/C(=O)NC3=O` (stereo unspecified) is 125.

Turning to `Cc1cc2c(F)c(Oc3ncnn4cc(OC[C@@H](C)O)c(C)c34)ccc2[nH]1`, the viability came to 118. Still for that read-out and setting: the figure for `Nc1cc(N2CCCCC2)nc(N)[n+]1[O-]` is 91.1.

The molecule `Cc1cn2cc(C(=O)N(C)CCO)cc(N[C@@H]3CCOc4cccc(C)c43)c2n1` returned a viability of 144. Still for that read-out and setting: the figure for `CC(C(=O)O)c1ccc(-c2ccccc2)c(F)c1` (stereo unspecified) is 110; for `C[S+]([O-])(=O)C1=CC=C(C=C1)C/2=C(/C(=O)OC2)C3=CC=CC=C3` it is 122.

Consider `CN(C(=O)c1ccc(F)cc1C(F)(F)F)C1CCN(c2nnc(-c3ccnn3C)c3ccccc23)CC1`, for which the viability was determined as 78.1. Still for that read-out and setting: with `COc1cc2nc(N3CCN(C(=O)c4ccco4)CC3)nc(N)c2cc1OC` the figure was 23.4; with `CNC(=O)c1ccc2cc(C3(O)CCn4cncc43)ccc2c1` (stereo unspecified), 106.

Take `CC1(C)Cc2c(-c3ccccc3)c(-c3ccc(Cl)cc3)c(CC(=O)O)n2C1`: the viability amounted to 102. The same measure, in the same setting: with `CN1C(=O)C(Cc2c[nH]c3ccccc23)NC1=S` (stereo unspecified) the figure was 102.

Turning to `Nc1nc(-c2nn(Cc3ccccc3F)c3ncccc23)nc(N)c1N1CCOCC1`, the viability stood at 111. Same read-out and setting: the figure for `COc1cc(OC)c(NC(=O)Nc2cc(C)on2)cc1Cl` is 131; for `Nc1ncnc2ccccc12` it is 127; for `COc1ccc(C2(C#N)CCC(C(=O)O)CC2)cc1OC1CCCC1` (stereo unspecified) it is 123. `CCN[C@H]1C[C@H](C)[S+](=O)([O-])c2sc([S+](N)(=O)[O-])cc21` showed a viability of 103.

For the molecule `CC(C)(C)OC(=O)CN(Cc1ccc(Cl)cc1)Cc1ccc([N+](=O)[O-])s1`, the viability turned out to be 97.7. In the case of `CCCCCCCCCCCCCCCC(=O)OC[C@@H](NC(=O)C(Cl)Cl)[C@H](O)c1ccc([N+](=O)[O-])cc1`, the viability worked out at 130. In turn, `Cn1cnc(-c2cc3nccc(Oc4ccc(NC(=S)NC(=O)Cc5ccccc5)cc4F)c3s2)c1` showed a viability of 96.8. The same measure, in the same setting: with `Fc1ccc([C@@H]2CCNC[C@H]2COc2ccc3c(c2)OCO3)cc1` the figure was 97.2; with `COc1cc2c(Nc3ccc(Br)cc3F)ncnc2cc1OCC1CCN(C)CC1`, 52.2.

Take `CC[C@@]1(O)C(=O)OC\C2=C1\C=C3/N(CC4=CC5=C(C=CC(=C5CN(C)C)O)N=C34)C2=O`: the viability amounted to 66.5.

Consider `COc1ccc2cc([C@H](C)C(=O)O)ccc2c1`, for which the viability was 97.3. Still for that read-out and setting: the figure for `OC(=O)\C1=C\N(C2=CC=C(F)C=C2)C3=C(C=C(F)C(=C3)N4CCNCC4)C1=O` is 120. The same measure, in the same setting: with `CC(C)C[C@H](CN)CC(=O)O` the figure was 117; with `CC(=O)N(C)c1cccc(-c2ccnc3c(C(=O)c4cccs4)cnn23)c1`, 106. `CC(=O)O[C@H]1C(=O)[C@]2(C)[C@@H](O)C[C@H]3OC[C@@]3(OC(C)=O)C2[C@H](OC(=O)C4=CC=CC=C4)[C@]5(O)C[C@H](OC(=O)[C@H](O)[C@@H](NC(=O)C6=CC=CC=C6)C7=CC=CC=C7)\C(=C1/C5(C)C)C` (stereo partly specified): the viability worked out at 97.8. On the same count and under the same terms, the figure for `C=C1C[C@@]2(O)O[C@@]3(C[C@H]2C(C)C)[C@@H](C)CC[C@@H]13` is 127; for `CCOc1ccccc1OCCNC(C)Cc1ccc(OC)c([S+](N)(=O)[O-])c1` (stereo unspecified) it is 135.

In turn, `CC(NCCc1ccc(O)cc1)C(O)c1ccc(O)cc1` (stereo unspecified) came in with a viability of 124. Take `C[C@]12CC[C@H]3[C@@H](CCC/4=C/C(=O)CC[C@]34C)[C@@H]1CC[C@@H]2O`: the viability was 112.

Turning to `NC(=O)c1cccc(N)c1`, the viability is 109. In turn, `Cc1cccc(-c2[nH]c(C(C)(C)C)nc2-c2ccc3c(c2)OCO3)n1` showed a viability of 118. Same read-out and setting: the figure for `CN1C2=CC(=O)/C(=N/NC(N)=O)C=C2CC1S(=O)(=O)[O-].[Na+]` (stereo unspecified) is 102; for `OC1=CC2=C(C(=O)\C=C(/O2)C3=CC=CC=C3)C(=C1O)O` it is 114. Molecule `CN1C(=O)C(=C\C2=C1N=C(NC3=CC=CC(=C3)C(O)=O)N=C2)/C4=C(Cl)C=CC=C4Cl` gave a viability of 148. For the molecule `COc1cc(Oc2ccnc3cc(OC)c(OC)cc23)ccc1NC(=O)NC(C)c1nccs1` (stereo unspecified), the viability was found to be 110.

Regarding `CCCn1c(=O)c2[nH]c(-c3cnn(Cc4cccc(C(F)(F)F)c4)c3)nc2n(CC)c1=O`, the viability was determined as 119. `CCCCC(=O)O[C@]1(C(=O)CO)[C@H](C)C[C@H]2[C@@H]3CCC4=CC(=O)C=C[C@]4(C)[C@@]3(F)[C@@H](O)C[C@@]21C` registered a viability of 121. `Cc1cnn(C)c1C(=O)Nc1cc(Nc2ccc3c(/C=C/c4ccccn4)n[nH]c3c2)ccc1F` had a viability of 125.

With `C[C@]12CC[C@@H]3c4ccc(O)cc4C[C@@H](CCCCCCCCC[S+]([O-])CCCC(F)(F)C(F)(F)F)[C@H]3[C@@H]1CC[C@@H]2O` (stereo partly specified), the viability turned out to be 114. Same read-out and setting: the figure for `CCCCCCCCc1ccc(CCC(N)(CO)CO)cc1` is 90.9; for `CCCc1nc(C(C)(C)O)c(C(=O)O)n1Cc1ccc(-c2ccccc2-c2nn[nH]n2)cc1` it is 107; for `O=C(CCCN1CCN(c2ccc(F)cc2)CC1)NC1c2ccccc2CSc2ccccc21` (stereo unspecified) it is 93.5. For the molecule `O=C(CCN1CCN(C(=O)OCc2cc(Cl)cc(Cl)c2)CC1)c1ccc2[nH]c(=O)oc2c1`, the viability was determined as 109. `NC(=O)c1ccc2[nH]ccc2c1` yielded a viability of 122. Still for that read-out and setting: with `CCCCc1nc2cc(/C=C/C(=O)NO)ccc2n1CCN(CC)CC` the figure was 67.2.

On to `COc1cc(C(=O)N2CCC(N3CCN(C)CC3)CC2)ccc1Nc1ncc2c(n1)N(C)c1ccccc1C(=O)N2C`, for which the viability was 78.9. On to `C[C@]12CCC3c4ccc(O)cc4CCC3C1CCC2=O` (stereo partly specified), for which the viability turned out to be 94.8. For the molecule `CC(C)CC(=O)N[C@H](C(=O)N[C@H](C(=O)N[C@@H](CC(C)C)[C@@H](O)CC(=O)N[C@@H](C)C(=O)N[C@@H](CC(C)C)[C@@H](O)CC(=O)O)C(C)C)C(C)C`, the viability came out at 99.5. Same read-out and setting: with `O=[S+]([O-])(/N=C/c1c(O)ccc2ccccc12)c1cccs1` the figure was 87.9; with `CCOC(=O)N1CCN(/[N+]([O-])=N/Oc2ccc([N+](=O)[O-])cc2C#N)CC1`, 92.1; with `Cl.Cl.Cl.O[C@@H](COc1cccc2ncccc12)CN1CCN([C@@H]2c3ccccc3[C@@H]3[C@H](c4ccccc42)C3(F)F)CC1`, 70.9. Same read-out and setting: with `N#C[C@H](O[C@@H]1O[C@H](CO[C@@H]2O[C@H](CO)[C@@H](O)[C@H](O)[C@H]2O)[C@@H](O)[C@H](O)[C@H]1O)c1ccccc1` the figure was 98.6.

Still in this assay, the particulars now being: library / dose series: MIPE library, 11-point 1:3 dilution; top concentration 92.2 µM; 48 h.
Take `COc1ccc(-c2c(-c3ccc(O)cc3O)n[nH]c2C)cc1`: the viability came to 98.3. In the case of `O=C(O)c1cc(O)c2c(c1)C(=O)c1cccc(O)c1C2=O`, the viability turned out to be 110.
